For assay [1], the target named is T1, human dopamine D1 receptor (Homo sapiens, UniProt P21728).
T1 construct: expressed in transfected cells; host or cells: CHO-K1
Description: Competition radioligand binding at human D1 receptor ([3H]-SCH-23390). The note with it: mean ± SEM of 2 independent experiments, read-out: huD1 % inh. at 10 µM. How it is done: (§1) Competition radioligand binding assays were performed on membranes isolated from cell lines stably expressing the cloned human receptors, which were either in-house or commercially available. […] Assays (250 μL assay final volume) were carried out in 96-well polypropylene plates in duplicate. In short, the suspension of appropriate membrane protein was incubated in an assay buffer with the addition of the corresponding radioligand, in the presence or absence of a tested compound or reference compound. […] After the incubation, the content of the test plates was transferred to 96 well plates with glass fiber filter GF/B or GF/C, previously pretreated with polyethyleneimine (PEI), and rapidly filtered with the use of vacuum, followed by rapid washing with cold (4 °C) wash buffer. After that, the filter plates were dried at 60 °C for 1 h. Then, 30 μL of liquid scintillation cocktail (UniverSol-ES, MP Biomedicals, Solon, OH, USA) was added to each well of the filter plates, and the radioactivity was measured in a MicroBeta^2 microplate scintillation counter (PerkinElmer, Madrid, Spain).
(§2) Competition binding curves were fitted to a one-site competition binding model (Fit Ki) with the use of Prism 7 software (GraphPad, San Diego, CA, USA). logKi (log of the equilibrium dissociation constant (Ki)) values were obtained after constraining the concentration of radioligand employed in the assay and its dissociation constant (KD) as determined in saturation radioligand binding assays.

For assay [2], the target named is T2, human 5-HT2A receptor (Homo sapiens, UniProt P28223).
T2 construct: expressed in transfected cells; host or cells: CHO-K1
T2 sequence (P28223 whole entry): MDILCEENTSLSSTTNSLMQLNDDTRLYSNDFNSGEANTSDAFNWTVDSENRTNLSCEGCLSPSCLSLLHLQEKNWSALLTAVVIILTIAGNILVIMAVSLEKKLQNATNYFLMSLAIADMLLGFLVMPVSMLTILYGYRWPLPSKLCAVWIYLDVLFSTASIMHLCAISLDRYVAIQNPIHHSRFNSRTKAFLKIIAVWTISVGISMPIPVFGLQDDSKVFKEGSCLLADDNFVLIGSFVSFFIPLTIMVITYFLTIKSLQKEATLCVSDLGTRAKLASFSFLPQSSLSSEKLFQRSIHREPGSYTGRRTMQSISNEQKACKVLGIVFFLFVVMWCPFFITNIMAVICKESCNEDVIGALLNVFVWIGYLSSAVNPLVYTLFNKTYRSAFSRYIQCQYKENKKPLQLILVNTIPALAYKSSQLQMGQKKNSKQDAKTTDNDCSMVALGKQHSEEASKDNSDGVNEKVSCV
As to the kind of experiment: Competition radioligand binding at human 5-HT2A receptor ([3H]-Ketanserin). The note with it: mean ± SEM of 2 independent experiments, read-out: hu5-HT2A % inh. at 10 µM. How it is done:
as §1, §2

For assay [3], the system named is mice. Description: Spontaneous locomotor activity in mice. Format: in vivo. The following applies: for Distance Traveled after 10 min / Distance Traveled after 30 min: mean ± SEM, n=10. How it is done: (§3) The experiments were carried out on 6 weeks old naive Swiss male mice (Experimental Medicine Center (OMD), Lublin, Poland), weighing 28–30 g. The cages with mice were located in air-conditioned rooms maintaining the ambient temperature within the range of 23–25 °C. The animals were provided with a natural 12 h day/night cycle, replicating the day and night mode. Each testing group was represented by 8–10 animals, depending on the research schedule. All experiments were conducted according to the National Institute of Health Guidelines for the Care and Use of Laboratory Animals (8th edition) and to the European Community Council Directive for the Care and Use of Laboratory Animals of 22 September 2010 (2010/63/EU) and were approved by the Local Ethical Committee (number of ethical approval: 147/2018).
(§4) Compound 17 (25, 50, 75 mg/kg) was suspended in 1% Tween 80 in saline solution and was administered intraperitoneally (i.p.) 60 min before the test. Diazepam (DZ, Relanium, Polfa, Poland) at a dose of 1 mg/kg was diluted in 0.9% saline containing 1% Tween 80 and was administered subcutaneously (s.c.), 60 min before the test. Imipramine hydrochloride (30 mg/kg, Sigma-Aldrich was administered intraperitoneally (i.p.) 60 min before the test. D-amphetamine sulfate (3 mg/kg; Sigma-Aldrich, USA) was given subcutaneously (s.c.). Prior to administration, the agent was dissolved in saline and injected 30 min before the test. Control animals received an (i.p.) or (s.c.) injection of a respective vehicle. All compounds were injected in a manner generally accepted in experimental pharmacology, in an amount of 10 mL/kg body weight.
(§5) The measurement of the spontaneous locomotor activity was carried out using the OptoVarimex 4 Auto-Track device (Columbus Instruments, Columbus, OH, USA). Tested animals are kept in cages for 30 min. Their activity was recorded as interruptions of the light beams after 10 and 30 min of the test, and it was calculated automatically as a traveled distance in cm (±SEM). To determine whether compound 17 has an influence on amphetamine-induced hyperactivity, each mouse received 17 (25, 50 and 75 mg/kg; i.p.) and amphetamine (3 mg/kg; s.c.) 30 min after injection of 17 or vehicle and then spontaneous locomotor activity was measured.

Assay [4] relates to mice. As to the kind of experiment: Amphetamine-induced hyperactivity in mice. It counts as in vivo. The following applies: amphetamine 3 mg/kg s.c.; for effect on amphetamine-induced hyperactivity after 10 min / effect on amphetamine-induced hyperactivity after 30 min: p < 0.05 vs amphetamine group. How it is done: as §3, §4, §5
Assay [5] relates to mice. Description: Elevated plus-maze (EPM) test. Format: in vivo. The note with it: 25, 50 and 75 mg/kg i.p., 60 min before the test. The protocol:
as §3, §4
The experiment was carried out on mice according to the method of Lister. […] The number of entries into the open arms and the time spent in these arms were scored for a 5-min test period. […] The following measures were obtained from the test: the total number of arm entries, the percentage of entries into the open arms, the time spent in the open arms expressed as a percentage of the time spent in both the open and closed arms. […]

Where [6] appears, read: 25 mg/kg i.p. 60 min before the test.
Setting [7] is: 50 mg/kg i.p. 60 min before the test.
The mark [8] stands for this setting: 75 mg/kg i.p. 60 min before the test.

T1 sequence (P21728 whole entry): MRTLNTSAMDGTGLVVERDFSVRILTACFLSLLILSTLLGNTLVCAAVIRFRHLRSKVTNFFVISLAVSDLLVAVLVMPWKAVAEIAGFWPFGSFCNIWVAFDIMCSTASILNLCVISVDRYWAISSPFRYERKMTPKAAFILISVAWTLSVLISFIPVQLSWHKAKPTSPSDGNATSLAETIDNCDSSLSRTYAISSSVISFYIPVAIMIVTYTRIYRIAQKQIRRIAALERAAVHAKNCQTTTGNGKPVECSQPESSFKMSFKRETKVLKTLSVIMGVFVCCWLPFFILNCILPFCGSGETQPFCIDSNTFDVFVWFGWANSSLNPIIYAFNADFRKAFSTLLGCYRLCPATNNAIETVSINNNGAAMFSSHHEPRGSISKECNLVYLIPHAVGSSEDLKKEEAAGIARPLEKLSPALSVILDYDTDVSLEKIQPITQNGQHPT

As for `O=C(CCN1C(=O)CSc2ccccc21)Nc1ccc(Cl)cc1` [Compound 17, N-(4-Chlorophenyl)-3-(3-oxo-2,3-dihydro-4H-benzo[b][1,4]thiazin-4-yl)propanamide], the values for the inhibition at 10 µM in assay [1] and in assay [2] were 21 ± 2% and 28 ± 1%, respectively. The “Distance Traveled after 10 min” value in assay [3] (setting [6]) came to 910.1 ± 139.3 cm; in assay [3] (setting [7]) it was 855.9 ± 195.1 cm; in assay [3] (setting [8]), 1200 ± 216.0 cm. The “Distance Traveled after 30 min” value in assay [3] (setting [6]) is 2003 ± 355.7 cm; in assay [3] (setting [7]), 2345 ± 616.0 cm; in assay [3] (setting [8]) it was 2983 ± 595.8 cm. The “effect on locomotor activity versus the control group” value in assay [3] (25, 50 and 75 mg/kg i.p., after 10 min and after 30 min) is reported as “no statistically significant effects”. Besides, the “effect on amphetamine-induced hyperactivity” value in assay [4] (25 mg/kg i.p.) was “inactive”. Further, the “effect on amphetamine-induced hyperactivity after 10 min” value in assay [4] (50 mg/kg i.p.) and in assay [4] (75 mg/kg i.p.) was “decreased” each time. The “effect on amphetamine-induced hyperactivity after 30 min” value in assay [4] (50 mg/kg i.p.) and in assay [4] (75 mg/kg i.p.) was “decreased” in each case. In addition, in assay [5], the “percentage of entries into open arms” value is on record as “did not change”. Further, the “percentage of the time spent in open arms” value in assay [5] is on record as “did not change”.

(Values after paper PMC10223470 (Molecules, 2023).)
